Values after ≈ are worked out from the molar mass of the structure shown.

Data set [1] relates to Pseudomonas aeruginosa. The experiment in a line: Antibacterial activity against Pseudomonas aeruginosa ATCC 27853 after 24 hrs by micro broth dilution method. In kind it is functional. The note with it: ATCC 27853, 24 h. On the technique in general: Dilution methods test growth across graded concentrations, often in twofold steps.
In data set [2] the test system is Escherichia coli. Kind of data set: Antibacterial activity against Escherichia coli DH52 after 24 hrs by micro broth dilution method. In kind it is functional. The note with it: DH52, 24 h.
Data set [3] has as its system Aspergillus flavus. Kind of data set: Antifungal activity against Aspergillus flavus after 24 hrs by micro broth dilution method. In kind it is functional.
A short description of data set [4]: Ionization constant, pKa of the compound by UV spectroscopy. Type of data set: physicochemical.
Data set [5] deals with Micrococcus luteus. Kind of data set: Antibacterial activity against Micrococcus luteus ATCC 4698 after 24 hrs by micro broth dilution method. In kind it is functional. To be noted: ATCC 4698, 24 h.
The test system of data set [6] is Bacillus sp. Kind of data set: Antibacterial activity against Bacillus proteus ATCC 13315 after 24 hrs by micro broth dilution method. Type of data set: functional. The note with it: Bacillus sp. (in: firmicutes), ATCC 13315, 24 h.
Data set [7] deals with Bacillus spizizenii. The experiment in a line: Antibacterial activity against Bacillus subtilis ATCC 6633 after 24 hrs by micro broth dilution method. Type of data set: functional. The note with it: ATCC 6633, 24 h.
For data set [8], the system named is Cyberlindnera jadinii. The experiment in a line: Antifungal activity against Candida utilis ATCC 9950 after 24 hrs by micro broth dilution method. In kind it is functional. The note with it: Williopsis jadinii, ATCC 9950, 24 h.
Data set [9] concerns Staphylococcus aureus. Kind of data set: Antibacterial activity against Staphylococcus aureus ATCC 25923 after 24 hrs by micro broth dilution method. To be noted: ATCC 25923, 24 h. Type of data set: functional.
For data set [10], the system named is Candida albicans. The experiment in a line: Antifungal activity against Candida albicans ATCC 90029 after 24 hrs by micro broth dilution method. In kind it is functional. The note with it: ATCC 90029, 24 h.
In data set [11] the test system is Candida. Kind of data set: Antifungal activity against Candida mycoderma after 24 hrs by micro broth dilution method. Type of data set: functional.
Data set [12] has as its system Staphylococcus aureus. The experiment in a line: Antibacterial activity against methicillin-resistant Staphylococcus aureus N315 after 24 hrs by micro broth dilution method. Type of data set: functional. The note with it: N315, 24 h.
Data set [13] relates to Shigella dysenteriae. The experiment in a line: Antibacterial activity against Shigella dysenteriae ATCC 51252 after 24 hrs by micro broth dilution method. Type of data set: functional. To be noted: ATCC 51252, 24 h.

By MIC is commonly meant the smallest concentration in the dilution series that meets the test's criterion for growth inhibition. Broadly, the pKa is the pH at which an ionisable group is half protonated. A low value points to a stronger acid or weaker base. For the compound `CCCCCCCCCCCCN(Cc1nnn[nH]1)c1ccccc1`, the MIC was determined as 256 µg/mL (≈ 745 µM) in [1]; 128 µg/mL (≈ 373 µM) in data set [2]; 32 µg/mL (≈ 93.2 µM) in [3]; 128 µg/mL (≈ 373 µM) in data set [5]; 256 µg/mL (≈ 745 µM) in data set [6]; 64 µg/mL (≈ 186 µM) in [7]. The MIC in [8] worked out at 64 µg/mL (≈ 186 µM); in data set [9], 128 µg/mL (≈ 373 µM); in data set [10], 128 µg/mL (≈ 373 µM); in data set [11], 64 µg/mL (≈ 186 µM); in [12] it was 128 µg/mL (≈ 373 µM); in [13] it was 256 µg/mL (≈ 745 µM). Moreover, the pKa in data set [4] was determined as 4.92.
For `COc1ccc(N(CC#N)Cc2ccc(Cl)cc2Cl)cc1`, the minimum inhibitory concentration (MIC) in [1] is 256 µg/mL (≈ 797 µM); in data set [2], 256 µg/mL (≈ 797 µM); in [3], 128 µg/mL (≈ 398 µM); in data set [5] it was 256 µg/mL (≈ 797 µM); in data set [6] it was 128 µg/mL (≈ 398 µM); in data set [7], 256 µg/mL (≈ 797 µM). Further, the MIC came to 128 µg/mL (≈ 398 µM) in [8]; 128 µg/mL (≈ 398 µM) in data set [9]; 64 µg/mL (≈ 199 µM) in [10]; 64 µg/mL (≈ 199 µM) in data set [11]; 128 µg/mL (≈ 398 µM) in data set [12]; 128 µg/mL (≈ 398 µM) in data set [13].
With `CCCCCCN(CC#N)c1ccccc1`, the minimum inhibitory concentration (MIC) amounted to 512 µg/mL (≈ 2370 µM) in [1]; 128 µg/mL (≈ 592 µM) in data set [2]; 128 µg/mL (≈ 592 µM) in [3]; 256 µg/mL (≈ 1180 µM) in data set [5]; 256 µg/mL (≈ 1180 µM) in data set [6]; 256 µg/mL (≈ 1180 µM) in data set [7]. For the same compound, the MIC was 256 µg/mL (≈ 1180 µM) in data set [8]; 256 µg/mL (≈ 1180 µM) in [9]; 256 µg/mL (≈ 1180 µM) in data set [10]; 256 µg/mL (≈ 1180 µM) in data set [11]; 512 µg/mL (≈ 2370 µM) in data set [12]; 512 µg/mL (≈ 2370 µM) in data set [13].
In the case of `CCCCCCCCN(CC#N)c1ccccc1`, the minimum inhibitory concentration (MIC) in data set [1] was 512 µg/mL (≈ 2100 µM); in data set [2], 128 µg/mL (≈ 524 µM); in data set [3] it was 256 µg/mL (≈ 1050 µM); in data set [5], 256 µg/mL (≈ 1050 µM); in data set [6], 256 µg/mL (≈ 1050 µM); in data set [7], 256 µg/mL (≈ 1050 µM). The minimal inhibitory concentration (MIC) in data set [8] was found to be 256 µg/mL (≈ 1050 µM); in data set [9], 256 µg/mL (≈ 1050 µM); in [10], 256 µg/mL (≈ 1050 µM); in data set [11] it was 64 µg/mL (≈ 262 µM); in data set [12] it was 256 µg/mL (≈ 1050 µM); in [13] it was 512 µg/mL (≈ 2100 µM).
For the compound `CCCCCCCCCCCCN(CC#N)c1ccccc1`, the minimum inhibitory concentration (MIC) in data set [1] is 512 µg/mL (≈ 1700 µM); in data set [2], 256 µg/mL (≈ 852 µM); in data set [3], 128 µg/mL (≈ 426 µM); in [5] it was 128 µg/mL (≈ 426 µM); in data set [6], 512 µg/mL (≈ 1700 µM); in data set [7], 256 µg/mL (≈ 852 µM). For the same compound, the minimal inhibitory concentration (MIC) in data set [8] is 256 µg/mL (≈ 852 µM); in data set [9], 256 µg/mL (≈ 852 µM); in data set [10], 256 µg/mL (≈ 852 µM); in [11] it was 256 µg/mL (≈ 852 µM); in data set [12], 512 µg/mL (≈ 1700 µM); in data set [13] it was 512 µg/mL (≈ 1700 µM).
In the case of `N#CCN(Cc1ccccc1F)c1ccccc1`, the minimum inhibitory concentration (MIC) in data set [1] was found to be 128 µg/mL (≈ 533 µM); in data set [2], 128 µg/mL (≈ 533 µM); in data set [3], 128 µg/mL (≈ 533 µM); in data set [5], 256 µg/mL (≈ 1070 µM); in data set [6], 512 µg/mL (≈ 2130 µM); in [7], 256 µg/mL (≈ 1070 µM). For the same compound, the MIC was 128 µg/mL (≈ 533 µM) in data set [8]; 128 µg/mL (≈ 533 µM) in data set [9]; 128 µg/mL (≈ 533 µM) in data set [10]; 128 µg/mL (≈ 533 µM) in [11]; 128 µg/mL (≈ 533 µM) in data set [12]; 512 µg/mL (≈ 2130 µM) in data set [13].
Turning to `Cc1ccc(N(CC#N)Cc2ccc(F)cc2F)cc1`, the minimal inhibitory concentration (MIC) in data set [1] is 256 µg/mL (≈ 940 µM); in data set [2], 128 µg/mL (≈ 470 µM); in data set [3] it was 64 µg/mL (≈ 235 µM); in [5], 128 µg/mL (≈ 470 µM); in data set [6] it was 128 µg/mL (≈ 470 µM); in data set [7] it was 256 µg/mL (≈ 940 µM). Also, the MIC in data set [8] is 128 µg/mL (≈ 470 µM); in data set [9], 128 µg/mL (≈ 470 µM); in [10] it was 64 µg/mL (≈ 235 µM); in data set [11] it was 128 µg/mL (≈ 470 µM); in data set [12], 256 µg/mL (≈ 940 µM); in data set [13], 128 µg/mL (≈ 470 µM).
In the case of `CCn1cc(C(=O)O)c(=O)c2cc(F)c(N3CCNCC3)cc21` [NORFLOXACIN], the minimal inhibitory concentration (MIC) in data set [1] turned out to be 0.5 µg/mL (≈ 1.57 µM); in [2], 0.5 µg/mL (≈ 1.57 µM); in data set [5], 0.5 µg/mL (≈ 1.57 µM); in data set [6], 1 µg/mL (≈ 3.13 µM); in data set [7], 1 µg/mL (≈ 3.13 µM); in [9], 2 µg/mL (≈ 6.26 µM). The minimal inhibitory concentration (MIC) in data set [12] and in data set [13] was 0.5 µg/mL (≈ 1.57 µM) each time.
For the compound `N#CCN(Cc1cccc(F)c1)c1ccccc1`, the minimal inhibitory concentration (MIC) in data set [1] came out at 256 µg/mL (≈ 1070 µM); in [2], 256 µg/mL (≈ 1070 µM); in [3], 256 µg/mL (≈ 1070 µM); in data set [5], 256 µg/mL (≈ 1070 µM); in data set [6], 128 µg/mL (≈ 533 µM); in [7] it was 128 µg/mL (≈ 533 µM). Besides, the MIC in data set [8] was found to be 128 µg/mL (≈ 533 µM); in data set [9], 64 µg/mL (≈ 266 µM); in data set [10] it was 64 µg/mL (≈ 266 µM); in data set [11], 128 µg/mL (≈ 533 µM); in data set [12] it was 128 µg/mL (≈ 533 µM); in data set [13] it was 128 µg/mL (≈ 533 µM).

The values are drawn from ChEMBL document CHEMBL3621169, “Synthesis of tetrazole compounds as a novel type of potential antimicrobial agents and their synergistic effects with clinical drugs and interactions with calf thymus DNA” (Medchemcomm, 2015).
